# Counter-ions that a name gives are not always drawn.
# Tests used:
# [1] = tested on: L6-myotubes; assay: Measurement of intracellular cAMP levels (alpha screen cAMP kit) in differentiated cells, compared to isoproterenol; type: cell-based; details: 0.25 h, compound at 10 μM vs isoproterenol at 10 μM, 15 min stimulation, read-out: Biological example 2: intracellular cAMP level activity compared to that of isoproterenol
# Description: (§1) L6-myoblasts were grown in Dulbecco's Modified Eagle's Medium (DMEM) containing 1 g/L glucose supplemented with 10% fetal bovine serum, 2 mM L-Glutamine, 50 U/mL penicillin, […] streptomycin and 10 mM HEPES. Cells were plated at 1×10^5 cells per mL in 24-well plates. After reaching 90% confluence the cells were grown in medium containing 2% FBS for 7 days where upon cells differentiated into myotubes.
# Differentiated cells were serum-starved overnight and stimulated with an agonist, final concentration 1×10^−5 M, for 15 min in stimulation buffer (HBSS supplemented with 1% BSA, 5 mM HEPES and 1 mM IBMX, pH 7.4). The medium was aspirated and 100 μL of 95% EtOH was added to each well of the 24-well plate and cells were kept at −20° C. overnight. The EtOH was allowed to evaporate and 500 μL of lysis buffer (1% BSA, 5 mM HEPES and 0.3% Tween-20, pH 7.4) was added to each well. The plate was kept at −80° C. for 30 min and then at −20° C. until the day of detection when the samples were thawed. Intracellular cAMP levels were detected using an alpha screen cAMP kit (6760635D from Perkin Elmer). The activity for each compound is compared to that of isoproterenol.
# [2] = tested on: L6-myotubes; assay: Glucose uptake (3H-2-deoxyglucose) in differentiated L6-myotubes, compared to isoproterenol; type: cell-based; details: compound at 10 μM vs isoproterenol at 10 μM, read-out: Biological example 1: glucose uptake activity compared to that of isoproterenol
# Description: as §1
# Differentiated L6-myotubes were serum-starved overnight in medium containing 0.5% fatty-acid free BSA and stimulated with an agonist, with a final concentration of 1×10^−5 M. After 1 h 40 min the cells were washed with warm glucose free medium or PBS twice and another portion of agonist was added to the glucose free medium. After 20 min the cells were exposed to 50 nM ^3H-2-deoxyglucose for another 10 min before washed in ice cold glucose free medium or PBS three times and lysed in 400 μL/well 0.2 M NaOH for 1 h at 60° C. The cell lysate was mixed with 4 mL scintillation buffer (Emulsifier Safe, Perkin Elmer) and the radioactivity was detected in a p-counter (Tri-Carb 4810TR, Perkin Elmer). The activity for each compound is compared to that of isoproterenol.
Compound,Emax at 10 µM [1],Emax at 10 µM [2]
"CC(C)(C[C@H]1CCCN(S(C)(=O)=O)C1)NC[C@H](O)c1cccc(F)c1 [Example 25, (R)-1-(3-Fluorophenyl)-2-((2-methyl-1-((R)-1-(methylsulfonyl)-piperidin-3-yl)propan-2-yl)amino)ethan-1-ol hydrochloride]",< 25%,25 to 50%
"CC(=O)N1CCC[C@H](CC(C)(C)NC[C@H](O)c2cncc(F)c2)C1 [Example 26, 1-((R)-3-(2-(((R)-2-(5-Fluoropyridin-3-yl)-2-hydroxyethyl)amino)-2-methylpropyl)piperidin-1-yl)ethan-1-one dihydrochloride]",< 25%,50 to 75%
"CC(C)(C[C@H]1CCCN(S(C)(=O)=O)C1)NC[C@H](O)c1cncc(F)c1 [Example 27, (R)-1-(5-Fluoropyridin-3-yl)-2-((2-methyl-1-((R)-1-(methylsulfonyl)-piperidin-3-yl)propan-2-yl)amino)ethan-1-ol dihydrochloride]",< 25%,50 to 75%
"CC(C)(CC1CCNCC1)NC[C@H](O)c1cccc(F)c1 [Example 29, (R)-1-(3-Fluorophenyl)-2-((2-methyl-1-(piperidin-4-yl)propan-2-yl)-amino)ethan-1-ol]",< 25%,> 75%
"CC(=O)N1CCC(CC(C)(C)NC[C@H](O)c2cccc(F)c2)CC1 [Example 30, (R)-1-(4-(2-((2-(3-Fluorophenyl)-2-hydroxyethyl)amino)-2-methyl-propyl)piperidin-1-yl)ethan-1-one hydrochloride]",< 25%,> 75%
"CC(C)(CC1CCN(S(C)(=O)=O)CC1)NC[C@H](O)c1cccc(F)c1 [Example 31, (R)-1-(3-Fluorophenyl)-2-((2-methyl-1-(1-(methylsulfonyl)piperidin-4-yl)propan-2-yl)amino)ethan-1-ol hydrochloride]",< 25%,50 to 75%
"CN1CCC(CC(C)(C)NC[C@H](O)c2cccc(F)c2)CC1 [Example 32, (R)-1-(3-Fluorophenyl)-2-((2-methyl-1-(1-methylpiperidin-4-yl)-propan-2-yl)amino)ethan-1-ol dihydrochloride]",< 25%,50 to 75%
"CC(C)(CC1CCN(C(=O)OC(C)(C)C)CC1)NC[C@H](O)c1cncc(F)c1 [Example 33, tert-Butyl (R)-4-(2-((2-(5-fluoropyridin-3-yl)-2-hydroxyethyl)amino)-2-methylpropyl)piperidine-1-carboxylate]",< 25%,> 75%
"CC(=O)N1CCC(CC(C)(C)NC[C@H](O)c2cncc(F)c2)CC1 [Example 34, (R)-1-(4-(2-((2-(5-fluoropyridin-3-yl)-2-hydroxyethyl)amino)-2-methylpropyl)piperidin-1-yl)ethan-1-one dihydrochloride]",< 25%,50 to 75%
"CC(C)(CC1CCN(S(C)(=O)=O)CC1)NC[C@H](O)c1cncc(F)c1 [Example 35, (R)-1-(5-Fluoropyridin-3-yl)-2-((2-methyl-1-(1-(methylsulfonyl)-piperidin-4-yl)propan-2-yl)amino)ethan-1-ol dihydrochloride]",< 25%,50 to 75%
"CC(C)(C[C@@H]1CCC(=O)NC1)NC[C@H](O)c1cccc(F)c1 [Example 36, (S)-5-(2-(((R)-2-(3-Fluorophenyl)-2-hydroxyethyl)amino)-2-methyl-propyl)piperidin-2-one hydrochloride]",< 25%,50 to 75%
"CC(C)(C[C@@H]1CCC(=O)NC1)NC[C@H](O)c1cncc(F)c1 [Example 37, (S)-5-(2-(((R)-2-(5-Fluoropyridin-3-yl)-2-hydroxyethyl)amino)-2-methylpropyl)piperidin-2-one hydrochloride]",< 25%,> 75%
"CC(C)(C[C@H]1CCC(=O)NC1)NC[C@H](O)c1cccc(F)c1 [Example 38, (R)-5-(2-(((R)-2-(3-Fluorophenyl)-2-hydroxyethyl)amino)-2-methyl-propyl)piperidin-2-one hydrochloride]",< 25%,> 75%
"CC(C)(C[C@H]1CCCN(C(=O)OC(C)(C)C)C1)NC[C@H](O)c1cccc(F)c1 [Example 39, tert-Butyl (R)-3-(2-(((R)-2-(3-fluorophenyl)-2-hydroxyethyl)amino)-2-methylpropyl)piperidine-1-carboxylate]",25 to 50%,50 to 75%
"CC(C)(C[C@H]1CCCN(C(=O)OC(C)(C)C)C1)NC[C@H](O)c1cncc(F)c1 [Example 40, tert-Butyl (R)-3-(2-(((R)-2-(5-fluoropyridin-3-yl)-2-hydroxyethyl)-amino)-2-methylpropyl)piperidine-1-carboxylate]",< 25%,> 75%
"CC(C)(CC1CCN(C(=O)C(C)(C)C)CC1)NC[C@H](O)c1cccc(F)c1 [Example 41, (R)-1-(4-(2-((2-(3-Fluorophenyl)-2-hydroxyethyl)amino)-2-methyl-propyl)piperidin-1-yl)-2,2-dimethylpropan-1-one]",< 25%,25 to 50%
"CC(C)(CC1CCN(C(=O)C(F)(F)F)CC1)NC[C@H](O)c1cccc(F)c1 [Example 42, (R)-2,2,2-Trifluoro-1-(4-(2-((2-(3-fluorophenyl)-2-hydroxyethyl)-amino)-2-methylpropyl)piperidin-1-yl)ethan-1-one]",< 25%,25 to 50%
"COC(=O)N1CCC(CC(C)(C)NC[C@H](O)c2cccc(F)c2)CC1 [Example 43, Methyl (R)-4-(2-((2-(3-fluorophenyl)-2-hydroxyethyl)amino)-2-methyl-propyl)piperidine-1-carboxylate]",< 25%,50 to 75%
"CN(C)C(=O)N1CCC(CC(C)(C)NC[C@H](O)c2cccc(F)c2)CC1 [Example 44, (R)-4-(2-((2-(3-Fluorophenyl)-2-hydroxyethyl)amino)-2-methyl-propyl)-N,N-dimethylpiperidine-1-carboxamide hydrochloride]",50 to 75%,> 75%
"CNC(=O)N1CCC(CC(C)(C)NC[C@H](O)c2cccc(F)c2)CC1 [Example 45, (R)-4-(2-((2-(3-Fluorophenyl)-2-hydroxyethyl)amino)-2-methyl-propyl)-N-methylpiperidine-1-carboxamide]",< 25%,50 to 75%
"CC(C)(CC1CCNCC1)NC[C@H](O)c1cncc(F)c1 [Example 46, (R)-1-(5-Fluoropyridin-3-yl)-2-((2-methyl-1-(piperidin-4-yl)propan-2-yl)amino)ethan-1-ol]",< 25%,50 to 75%
"CC(C)(CC1CCN(C(=O)C(C)(C)C)CC1)NC[C@H](O)c1cncc(F)c1 [Example 47, (R)-1-(4-(2-((2-(5-Fluoropyridin-3-yl)-2-hydroxyethyl)amino)-2-methylpropyl)piperidin-1-yl)-2,2-dimethylpropan-1-one dihydrochloride]",< 25%,50 to 75%
"CC(C)(CC1CCN(C(=O)C(F)(F)F)CC1)NC[C@H](O)c1cncc(F)c1 [Example 48, (R)-2,2,2-Trifluoro-1-(4-(2-((2-(5-fluoropyridin-3-yl)-2-hydroxyethyl)-amino)-2-methylpropyl)piperidin-1-yl)ethan-1-one dihydrochloride]",< 25%,50 to 75%

# — US20260242335A1, “HETEROCYCLOALKYL BETA-HYDROXY ALKYL AMINES FOR USE IN THE TREATMENT OF HYPERGLYCAEMIA AND DISORDERS CHARACTERISED BY HYPERGLYCAEMIA” (ATROGI AB, priority 2023, published 2026)
